Source: patent publication US11932601B2, “Immunoregulatory agents” (FLEXUS BIOSCIENCES, INC., priority 2014, dated 2024)

biological target: T1, human IDO1 (Homo sapiens, UniProt P14902); test: HEK293 cells stably expressing human IDO1, IDO inhibition assay (kynurenine, Ehrlich reagent, absorbance 490 nm); format: cell-based; conditions: 20 hours incubation, 500 nM reference standard = 100% inhibition, read-out: HEK Human IDO-1 Biological Activity (IC50)
T1 construct: expressed in transfected cells
T1 sequence (P14902 whole entry): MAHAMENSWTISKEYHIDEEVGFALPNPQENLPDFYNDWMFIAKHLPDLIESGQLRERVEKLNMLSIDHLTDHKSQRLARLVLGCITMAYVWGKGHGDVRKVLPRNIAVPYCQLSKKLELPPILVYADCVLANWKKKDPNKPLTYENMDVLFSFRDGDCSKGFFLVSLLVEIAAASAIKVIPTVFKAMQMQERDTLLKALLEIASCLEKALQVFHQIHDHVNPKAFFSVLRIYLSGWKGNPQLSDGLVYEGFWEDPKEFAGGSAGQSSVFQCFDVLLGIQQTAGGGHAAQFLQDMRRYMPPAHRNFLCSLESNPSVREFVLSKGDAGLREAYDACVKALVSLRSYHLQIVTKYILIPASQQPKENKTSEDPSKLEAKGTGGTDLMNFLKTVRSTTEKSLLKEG
Protocol: HEK293 cells were transfected with a pCDNA-based mammalian expression vector harboring human IDO1 cDNA (NM 002164.2) by electroporation. They were cultured in medium (DMEM with 10% FBS) containing 1 mg/ml G418 for two weeks. Clones of HEK293 cells that stably expressed human IDO1 protein were selected and expanded for IDO inhibition assay.
The human IDO1/HEK293 cells were seeded at 10,000 cells per 50 μL per well with RPMI/phenol red free media contains 10% FBS in a 384-well black wall clear bottom tissue culture plate (Matrix Technologies LLC) 100 nL of certain concentration of compound was then added to each well using ECHO liquid handling systems. The cells were incubated for 20 hours in 37° C. incubator with 5% CO2.
The compound treatments were stopped by adding Trichloroacetic Acid (Sigma-Aldrich) to a final concentration at 0.2%. The cell plate was further incubated at 50° C. for 30 minute. The equal volume supernatant […] and 0.2% (w/v) Ehrlich reagent (4-dimethylaminobenzaldehyde, Sigma-Aldrich) in glacial acetic acid were mixed in a new clear bottom 384-well plate. This plate was then incubated at room temperature for 30 minute. The absorbance at 490 nm was measured on Envision plate reader.

SMILES	IC50
CC(C(=O)Nc1ccc(Cl)cc1)C1CCC(c2ccnnc2)CC1 (single isomer, unassigned) [Example 316d, N-(4-chlorophenyl)-2-(4-(pyridazin-4-yl)cyclohexyl) propanamide]	> 250 nM
CC(C(=O)Nc1ccc(Cl)cc1)C1CCC(c2ccnc(C(F)(F)F)c2)CC1 (single isomer, unassigned) [Example 312a, N-(4-chlorophenyl)-2-(4-(2-(trifluoromethyl)pyridin-4-yl)cyclohexyl) propanamide]	< 250 nM
CC(C(=O)Nc1ccc(Cl)cc1)C1CCC(c2cc(-c3ccc(F)cc3)ncn2)CC1 (single isomer, unassigned) [Example 314b, N-(4-chlorophenyl)-2-(4-(6-(4-fluorophenyl)pyrimidin-4-yl)cyclohexyl) propanamide]	< 250 nM
COc1cc([C@H]2CC[C@@H]([C@H](C)C(=O)Nc3ccc(Cl)cc3)CC2)ccn1 (single isomer, unassigned) [Example 307d, N-(4-Chlorophenyl)-2-(4-(2-methoxypyridin-4-yl)cyclohexyl)propanamide]	< 50 nM
COc1cc([C@H]2CC[C@@H]([C@H](C)C(=O)Nc3ccc(Cl)cc3)CC2)ccn1 (single isomer, unassigned) [Example 307f, N-(4-Chlorophenyl)-2-(4-(2-methoxypyridin-4-yl)cyclohexyl)propanamide]	< 50 nM
CC(C(=O)Nc1ccc(Cl)cc1)C1CCC(c2ccnc(C(F)(F)F)c2)CC1 (single isomer, unassigned) [Example 312c, N-(4-chlorophenyl)-2-(4-(2-(trifluoromethyl)pyridin-4-yl)cyclohexyl) propanamide]	< 50 nM
CC(C(=O)Nc1ccc(Cl)cc1)C1CCC(c2ccncc2F)CC1 (single isomer, unassigned) [Example 318d, N-(4-chlorophenyl)-2-(4-(3-fluoropyridin-4-yl)cyclohexyl) propanamide]	< 250 nM
Cc1c(C2CCC(C(C)C(=O)Nc3ccc(Cl)cc3)CC2)ccnc1F (single isomer, unassigned) [Example 310d, N-(4-chlorophenyl)-2-(4-(2-fluoro-3-methylpyridin-4-yl)cyclohexyl) propanamide]	< 50 nM
CC(C(=O)Nc1ccc(Cl)cc1)C1CCC(c2cccc(-c3ccccc3)c2)CC1 (single isomer, unassigned) [Example 317a, 2-(4-([1,1′-biphenyl]-3-yl)cyclohexyl)-N-(4-chlorophenyl) propanamide]	< 50 nM
Cc1nccc(C2CCC(C(C)C(=O)Nc3ccc(Cl)cc3)CC2)c1C (single isomer, unassigned) [Example 311f, N-(4-chlorophenyl)-2-(4-(2,3-dimethylpyridin-4-yl)cyclohexyl) propanamide]	< 250 nM
Cc1cnccc1C1CCC(C(C)C(=O)Nc2ccc(Cl)cc2)CC1 (single isomer, unassigned) [Example 313c, N-(4-chlorophenyl)-2-(4-(3-methylpyridin-4-yl)cyclohexyl) propanamide]	> 250 nM
Cc1nccc(O[C@H]2CC[C@H](C(C)C(=O)Nc3ccc(Cl)cc3)CC2)c1Cl (single isomer, unassigned) [Example 320, rac-2-((trans)-4-((3-chloro-2-methylpyridin-4-yl)oxy)cyclohexyl)-N-(4-chlorophenyl)propanamide]	< 50 nM
Cc1cc(C2CCC(C(C)C(=O)Nc3ccc(Cl)cc3)CC2)cc(C)n1 (single isomer, unassigned) [Example 308a, N-(4-chlorophenyl)-2-(4-(2,6-dimethylpyridin-4-yl)cyclohexyl) propanamide]	< 250 nM
Cc1cc(C2CCC(C(C)C(=O)Nc3ccc(Cl)cc3)CC2)ccn1 (single isomer, unassigned) [Example 309a, N-(4-chlorophenyl)-2-(4-(2-methylpyridin-4-yl)cyclohexyl) propanamide]	> 250 nM
CCC(C(=O)Nc1ccc(Cl)cc1)[C@H]1CC[C@H](Oc2ccncc2C(F)(F)F)CC1 (single isomer, unassigned) [Example 305a, N-(4-Chlorophenyl)-2-((1r,4r)-4-((3-(trifluoromethyl)pyridin-4-yl)oxy)cyclohexyl)-2λ^3-butanamide]	> 250 nM
CC(C(=O)Nc1ccc(Cl)cc1)C1CCC(c2ccnnc2)CC1 (single isomer, unassigned) [Example 316a, N-(4-chlorophenyl)-2-(4-(pyridazin-4-yl)cyclohexyl) propanamide]	> 250 nM
CC(C(=O)Nc1ccc(Cl)cc1)C1CCC(c2ccnc(C(F)(F)F)c2)CC1 (single isomer, unassigned) [Example 312b, N-(4-chlorophenyl)-2-(4-(2-(trifluoromethyl)pyridin-4-yl)cyclohexyl) propanamide]	< 50 nM

SMILES	IC50
CC(C(=O)Nc1ccc(Cl)cc1)C1CCC(c2cccc(-c3ccccc3)c2)CC1 (single isomer, unassigned) [Example 317d, 2-(4-([1,1′-biphenyl]-3-yl)cyclohexyl)-N-(4-chlorophenyl) propanamide]	> 250 nM
Cc1cnccc1C1CCC(C(C)C(=O)Nc2ccc(Cl)cc2)CC1 (single isomer, unassigned) [Example 313e, N-(4-chlorophenyl)-2-(4-(3-methylpyridin-4-yl)cyclohexyl) propanamide]	> 250 nM
CCC(C(=O)Nc1ccc(Cl)cc1)[C@H]1CC[C@@H](Oc2ccncc2)CC1 (mixture of isomers) [Example 306, N-(4-Chlorophenyl)-2-(cis-4-(pyridin-4-yloxy)cyclohexyl)butanamide]	< 50 nM
Cc1nccc(C2CCC(C(C)C(=O)Nc3ccc(Cl)cc3)CC2)c1C (single isomer, unassigned) [Example 311d, N-(4-chlorophenyl)-2-(4-(2,3-dimethylpyridin-4-yl)cyclohexyl) propanamide]	< 50 nM
CC(=O)Nc1cc(C2CCC(C(C)C(=O)Nc3ccc(Cl)cc3)CC2)ccn1 (single isomer, unassigned) [Example 315b, 2-(4-(2-acetamidopyridin-4-yl)cyclohexyl)-N-(4-chlorophenyl) propanamide]	< 50 nM
Cc1cnccc1C1CCC(C(C)C(=O)Nc2ccc(Cl)cc2)CC1 (single isomer, unassigned) [Example 313b, N-(4-chlorophenyl)-2-(4-(3-methylpyridin-4-yl)cyclohexyl) propanamide]	< 50 nM
Cc1c(C2CCC(C(C)C(=O)Nc3ccc(Cl)cc3)CC2)ccnc1F (single isomer, unassigned) [Example 310f, N-(4-chlorophenyl)-2-(4-(2-fluoro-3-methylpyridin-4-yl)cyclohexyl) propanamide]	< 250 nM
CC(C(=O)Nc1ccc(Cl)cc1)C1CCC(c2ccncc2F)CC1 (stereo not shown) [Example 318a, N-(4-chlorophenyl)-2-(4-(3-fluoropyridin-4-yl)cyclohexyl) propanamide]	< 50 nM
CCC(C(=O)Nc1ccc(Cl)cc1)[C@H]1CC[C@@H](Oc2ccncc2)CC1 (single isomer, unassigned) [Example 306a, N-(4-Chlorophenyl)-2-(cis-4-(pyridin-4-yloxy)cyclohexyl)butanamide]	< 50 nM
COc1cc([C@H]2CC[C@@H]([C@H](C)C(=O)Nc3ccc(Cl)cc3)CC2)ccn1 (single isomer, unassigned) [Example 307c, N-(4-Chlorophenyl)-2-(4-(2-methoxypyridin-4-yl)cyclohexyl)propanamide]	< 50 nM
CC1(CC(=O)Nc2ccc(Cl)cc2)CCN(c2ccnc(C(F)(F)F)c2)CC1 [Example 321, N-(4-Chlorophenyl)-2-(4-methyl-1-(2-(trifluoromethyl)pyridin-4-yl)piperidin-4-yl)acetamide]	< 250 nM
Cc1cc(C2CCC(C(C)C(=O)Nc3ccc(Cl)cc3)CC2)ccn1 (single isomer, unassigned) [Example 309c, N-(4-chlorophenyl)-2-(4-(2-methylpyridin-4-yl)cyclohexyl) propanamide]	> 250 nM
Cc1cc(C2CCC(C(C)C(=O)Nc3ccc(Cl)cc3)CC2)cc(C)n1 (single isomer, unassigned) [Example 308c, N-(4-chlorophenyl)-2-(4-(2,6-dimethylpyridin-4-yl)cyclohexyl) propanamide]	> 250 nM
CC(C(=O)Nc1ccc(Cl)cc1)C1CCC(c2ccnnc2)CC1 (single isomer, unassigned) [Example 316c, N-(4-chlorophenyl)-2-(4-(pyridazin-4-yl)cyclohexyl) propanamide]	> 250 nM
Cc1cc(C2CCC(C(C)C(=O)Nc3ccc(Cl)cc3)CC2)cc(C)n1 (single isomer, unassigned) [Example 308b, N-(4-chlorophenyl)-2-(4-(2,6-dimethylpyridin-4-yl)cyclohexyl) propanamide]	< 50 nM
CCC(C(=O)Nc1ccc(Cl)cc1)[C@H]1CC[C@H](Oc2ccncc2C(F)(F)F)CC1 (single isomer, unassigned) [Example 305b, N-(4-Chlorophenyl)-2-((1r,4r)-4-((3-(trifluoromethyl)pyridin-4-yl)oxy)cyclohexyl)-2λ^3-butanamide]	< 50 nM
COc1cc([C@H]2CC[C@@H]([C@H](C)C(=O)Nc3ccc(Cl)cc3)CC2)ccn1 (single isomer, unassigned) [Example 307e, N-(4-Chlorophenyl)-2-(4-(2-methoxypyridin-4-yl)cyclohexyl)propanamide]	< 250 nM
